In PubChem BioAssay AID720570 (Broad Institute, 2013):
Several values for one entry are separate records, joined by “and”; a condition that tells them apart may be missing. Equal values may be shown once.

System: TC71 Ewing sarcoma viability, CellTiter-Glo ATP, 72 h
Experiment: cytotoxicity in EWS/Fli1-dependent TC71 cells – cell-based, luminescence, cherry-picked samples, retest, confirmation (AID 720570)

Row | SMILES | AC35
1 | C[C@H]1CN([C@@H](C)CO)C(=O)c2cc(NS(=O)(=O)c3ccc(Cl)cc3)ccc2O[C@H]1CN(C)Cc1ccc(C(=O)Nc2ccccc2N)cc1 | 14.7 µM
2 | O=c1c(Cl)cc(Cl)nn1-c1ccccc1 | 13 µM
3 | C(=NNc1ccc2ccccc2n1)c1ccccn1 | 1.55 µM
4 | Cc1ccc(N2C(=O)c3cccc4c(N)ccc(c34)C2=O)c2cccnc12 | 0.0977 µM
5 | CCOc1cc(/C=N/Nc2cc(C)nc(-n3nc(C)cc3C)n2)ccc1O | 7.76 µM
6 | CC1=NN(c2ccc(C)cc2)C(=O)/C1=C\C=C\c1ccccc1 | 18.8 µM
7 | OC[C@H]1O[C@@H](n2cnc3c(NCc4ccco4)ncnc32)[C@H](O)[C@@H]1O | 8.41 µM
8 | Cc1cc2c(C(C)C)c(O)c(O)c(C=O)c2c(O)c1-c1c(C)cc2c(C(C)C)c(O)c(O)c(C=O)c2c1O | 5.02 µM
9 | COc1ccc(-c2cc(CNc3nc(NC(C)C)nc4cc(-c5ccccc5)sc34)on2)cc1 | 12.1 µM
10 | COc1ccc(C2=NNC(=Nc3cc(S(=O)(=O)N(C)C)ccc3C)SC2)c(OC)c1 | 11.9 µM
11 | COc1ccc(S(=O)(=O)Nc2ccc3c(c2)C(=O)N([C@H](C)CO)C[C@@H](C)[C@@H](CN(C)Cc2ccc(C(=O)Nc4ccccc4N)cc2)O3)cc1 | 18.5 µM
12 | CCc1cccc2c(C(=O)CN3C(=O)NC4(CCCCC4)C3=O)c[nH]c12 | 4.29 µM
13 | O=C1NC(=O)N(Cc2ccc(F)cc2)C(=O)/C1=C\C=C\c1ccco1 | 9.09 µM
14 | CN(C[C@H]1N[C@@H](CO)[C@@H]1c1ccc(C2=CCCC2)cc1)C(=O)c1cccc(F)c1 | 3.82 µM
15 | O=C1NC(=O)N(c2ccccc2)C(=O)/C1=C\C=C\c1ccccc1 | 12.6 µM
16 | COC(=O)c1ccccc1-c1c2ccc(=N)cc-2oc2cc(N)ccc12 | 8.14 µM
17 | CN(c1ccc(NC(=O)CCc2c[nH]c3ccccc23)cc1)c1ccccn1 | 8.74 µM
18 | COc1cc(-c2noc(C)c2C#Cc2nccn2C)cc(OC)c1OC | 13.1 µM
19 | CCCN1C/C(=C/c2ccc3c(c2)OCO3)C(=O)/C(=C/c2ccc3c(c2)OCO3)C1 | 13.6 µM
20 | Cc1cc(C)c2sc(NNC(=O)c3ccc(S(=O)(=O)N4CCc5ccccc5C4)cc3)nc2c1 | 2.4 µM
21 | Nc1nc(=S)c2ncn([C@@H]3O[C@H](CO)[C@@H](O)[C@H]3O)c2[nH]1 | 1.74 µM
22 | C[C@H]1CN([C@@H](C)CO)S(=O)(=O)c2ccc(C#Cc3ccncc3)cc2O[C@@H]1CN(C)C(=O)Nc1ccc2c(c1)OCO2 | 4.14 µM

Row | SMILES | AC35
23 | O=C(O)c1ccccc1C(=O)Nc1ccc(Oc2ccc3ccccc3c2)cc1 | 9.26 µM
24 | COc1ccc(-c2nc3c(s2)CCc2onc(-c4ccc(OC)cc4)c2-3)cc1 | 13.3 µM
25 | C[C@H]1CN([C@@H](C)CO)C(=O)c2cc(N(C)C)ccc2O[C@H]1CN(C)Cc1ccc(C(=O)Nc2ccccc2N)cc1 | 12.1 µM
26 | C[C@@H]1CN([C@@H](C)CO)C(=O)c2cc(NC(=O)Nc3ccccc3)ccc2O[C@@H]1CN(C)Cc1ccc(C(=O)Nc2ccccc2N)cc1 | 6.58 µM
27 | Cc1cccc(CN2C(=O)/C(=C\c3ccc(C(=O)NCCCN4CCN(C)CC4)cc3)Oc3ccccc32)c1 | 12.9 µM
28 | C[C@H](O)C#Cc1ccc2c(c1)O[C@@H](CN(C)Cc1ccc(-c3ccccc3)cc1)[C@H](C)CN([C@@H](C)CO)S2(=O)=O | 3.82 µM and 4.62 µM
29 | S=c1[nH]nc(-c2cc(-c3ccccc3)n[nH]2)n1/N=C/C(Br)=C/c1ccccc1 | 13.2 µM
30 | CCN1/C(=C/C(C)=C/c2sc3ccccc3[n+]2CC)Sc2ccccc21 | 0.951 µM
31 | O=c1[nH]c(/C=C2\C=Nc3ccccc32)c(O)n1Cc1ccccc1F | 20.7 µM
32 | Nc1cc2c(cc1Br)[nH]c(=O)c1ccccc12 | 23.3 µM
33 | C[C@@H]1O[C@@H](O[C@@H]2C=C3CC[C@@H]4C(CC[C@]5(C)[C@@H](c6ccc(=O)oc6)CC[C@]45O)[C@@]3(C)CC2)[C@H](O)[C@H](O)[C@H]1O (stereo partly drawn) | 0.0374 µM
34 | Nc1nc(N)c(-c2cccc(C(F)(F)F)c2)c(Cc2cccc(C(F)(F)F)c2)n1 | 4.27 µM
35 | O=C1NC(=O)N(Cc2ccco2)C(=O)/C1=C/C=C/c1ccco1 | 12.5 µM
36 | CC1(C)Oc2cc3oc(-c4cc(O)cc(O)c4)cc3cc2CC1O (stereo not drawn) | 12.5 µM
37 | COc1cc2c(cc1NC(=O)CN(C)Cc1ccc(OC)c(OC)c1)oc1ccccc12 | 14.5 µM
38 | C[C@@H]1O[C@@H](O[C@H]2C[C@@H](O)[C@]3(CO)[C@@H]4C(CC[C@]3(O)C2)[C@@]2(O)CC[C@H](C3COC(=O)C3)[C@@]2(C)C[C@H]4O)[C@H](O)[C@H](O)[C@H]1O (stereo partly drawn) | 6.91 µM
39 | C[C@]12CC[C@H]3[C@@H](CC[C@]4(O)C[C@@H](O)CC[C@]34C=O)[C@@]1(O)CC[C@@H]2C1=CC(=O)OC1 | 2.24 µM
40 | N#C[C@H]1[C@H](c2ccc(-c3ccccc3F)cc2)[C@@H](CO)N1C(=O)Cc1ccccc1 | 6.75 µM
41 | CCc1ccc(S(=O)(=O)c2ccc(-n3nc(C)cc3N)cc2)cc1 | 19.4 µM
42 | C[C@H](CO)N1C[C@H](C)[C@@H](CN(C)Cc2ccc(Oc3ccccc3)cc2)Oc2ccc(NS(=O)(=O)c3ccc(Cl)cc3)cc2CC1=O | 13 µM
43 | C[C@H](CO)N1C[C@H](C)[C@H](CN(C)Cc2ccc(C(=O)Nc3ccccc3N)cc2)Oc2ccc(NC(=O)C3CC3)cc2CC1=O | 9.49 µM
